Data from PubChem BioAssay (NCI).
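Protocol summary: plate cells (96-well), add compound at 5 concentrations, incubate 48 h, interpolate endpoints linearly. Definition used: TGI = concentration required for complete inhibition of growth.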

Experiments:
Experiment in all cases: NCI tumour cell line growth inhibition, 48 h
PC-3 prostate = tested on: PC-3 prostate
HCC-2998 colon = tested on: HCC-2998 colon
A549 NSCLC = tested on: A549 NSCLC
UACC-62 melanoma = tested on: UACC-62 melanoma
K-562 leukemia = tested on: K-562 leukemia
HOP-92 NSCLC = tested on: HOP-92 NSCLC
MDA-MB-435 = tested on: MDA-MB-435
UACC-257 melanoma = tested on: UACC-257 melanoma
ACHN renal = tested on: ACHN renal
OVCAR-5 ovarian = tested on: OVCAR-5 ovarian
SW-620 colon = tested on: SW-620 colon
IGROV1 ovarian = tested on: IGROV1 ovarian
SF-268 CNS = tested on: SF-268 CNS
HL-60(TB) leukemia = tested on: HL-60(TB) leukemia
HOP-62 NSCLC = tested on: HOP-62 NSCLC
SN12C renal = tested on: SN12C renal
RPMI-8226 leukemia = tested on: RPMI-8226 leukemia
T-47D breast = tested on: T-47D breast
CCRF-CEM leukemia = tested on: CCRF-CEM leukemia
LOX IMVI melanoma = tested on: LOX IMVI melanoma
DU-145 prostate = tested on: DU-145 prostate
OVCAR-4 ovarian = tested on: OVCAR-4 ovarian
SNB-19 CNS = tested on: SNB-19 CNS
COLO 205 colon = tested on: COLO 205 colon
NCI-H226 lung = tested on: NCI-H226 lung
786-0 renal = tested on: 786-0 renal
NCI-H460 lung = tested on: NCI-H460 lung
RXF 393 renal = tested on: RXF 393 renal
HS 578T breast = tested on: HS 578T breast
M14 melanoma = tested on: M14 melanoma
NCI/ADR-RES ovarian = tested on: NCI/ADR-RES ovarian
HCT-116 colon = tested on: HCT-116 colon
MDA-N = tested on: MDA-N
SK-OV-3 ovarian = tested on: SK-OV-3 ovarian
MALME-3M melanoma = tested on: MALME-3M melanoma
MCF7 breast = tested on: MCF7 breast
UO-31 renal = tested on: UO-31 renal
SNB-75 CNS = tested on: SNB-75 CNS
BT-549 breast = tested on: BT-549 breast
TK-10 renal = tested on: TK-10 renal
KM12 colon = tested on: KM12 colon
MDA-MB-231 breast = tested on: MDA-MB-231 breast
A498 renal = tested on: A498 renal
SF-539 CNS = tested on: SF-539 CNS
U251 CNS = tested on: U251 CNS
SK-MEL-5 melanoma = tested on: SK-MEL-5 melanoma
HT29 colon = tested on: HT29 colon
SK-MEL-28 melanoma = tested on: SK-MEL-28 melanoma
SK-MEL-2 melanoma = tested on: SK-MEL-2 melanoma
HCT-15 colon = tested on: HCT-15 colon
OVCAR-3 ovarian = tested on: OVCAR-3 ovarian
NCI-H23 lung = tested on: NCI-H23 lung
MOLT-4 leukemia = tested on: MOLT-4 leukemia
OVCAR-8 ovarian = tested on: OVCAR-8 ovarian
NCI-H522 lung = tested on: NCI-H522 lung
SR leukemia = tested on: SR leukemia
SF-295 CNS = tested on: SF-295 CNS
EKVX NSCLC = tested on: EKVX NSCLC
CAKI-1 renal = tested on: CAKI-1 renal

With `Nc1nc(Nc2ccc(Cl)cc2)sc1C(=O)c1cc2ccccc2oc1=O` the TGI (PC-3 prostate) was > 100 µM, the TGI (HCC-2998 colon) was > 100 µM and the TGI (A549 NSCLC) was > 100 µM. For the same molecule, the TGI (UACC-62 melanoma) was > 100 µM, the TGI (K-562 leukemia) was > 100 µM and the TGI (HOP-92 NSCLC) was > 100 µM. The TGI (MDA-MB-435) was > 100 µM, the TGI (UACC-257 melanoma) was > 100 µM and the TGI (ACHN renal) was > 100 µM. The TGI (OVCAR-5 ovarian) was > 100 µM, the TGI (SW-620 colon) was > 100 µM and the TGI (IGROV1 ovarian) was > 100 µM. The TGI (SF-268 CNS) was > 100 µM, the TGI (HL-60(TB) leukemia) was > 100 µM and the TGI (HOP-62 NSCLC) was 42.7 µM. The TGI (SN12C renal) was > 100 µM, the TGI (RPMI-8226 leukemia) was > 100 µM and the TGI (T-47D breast) was > 100 µM. For the same molecule, the TGI (CCRF-CEM leukemia) was > 100 µM, the TGI (LOX IMVI melanoma) was > 100 µM and the TGI (DU-145 prostate) was > 100 µM. For the same molecule, the TGI (OVCAR-4 ovarian) was > 100 µM, the TGI (SNB-19 CNS) was > 100 µM and the TGI (COLO 205 colon) was > 100 µM. The TGI (NCI-H226 lung) was > 100 µM, the TGI (786-0 renal) was > 100 µM and the TGI (NCI-H460 lung) was > 100 µM. The TGI (RXF 393 renal) was > 100 µM, the TGI (HS 578T breast) was > 100 µM and the TGI (M14 melanoma) was > 100 µM. For the same molecule, the TGI (NCI/ADR-RES ovarian) was > 100 µM, the TGI (HCT-116 colon) was > 100 µM and the TGI (MDA-N) was > 100 µM. The TGI (SK-OV-3 ovarian) was > 100 µM, the TGI (MALME-3M melanoma) was 76.8 µM and the TGI (MCF7 breast) was > 100 µM. For the same molecule, the TGI (UO-31 renal) was > 100 µM, the TGI (SNB-75 CNS) was 68.8 µM and the TGI (BT-549 breast) was > 100 µM. For the same molecule, the TGI (TK-10 renal) was > 100 µM, the TGI (KM12 colon) was > 100 µM and the TGI (MDA-MB-231 breast) was > 100 µM. For the same molecule, the TGI (A498 renal) was 93.7 µM, the TGI (SF-539 CNS) was > 100 µM and the TGI (U251 CNS) was > 100 µM. The TGI (SK-MEL-5 melanoma) was > 100 µM, the TGI (HT29 colon) was > 100 µM and the TGI (SK-MEL-28 melanoma) was > 100 µM. For the same molecule, the TGI (SK-MEL-2 melanoma) was 75.8 µM, the TGI (HCT-15 colon) was > 100 µM and the TGI (OVCAR-3 ovarian) was 38.6 µM. For the same molecule, the TGI (NCI-H23 lung) was 89.5 µM.
`CC(=O)OCCn1c(Cc2ccc([N+](=O)[O-])cc2)nn(C(C)=O)c1=O` was tested, and the TGI (PC-3 prostate) was > 100 µM, the TGI (HCC-2998 colon) was > 100 µM and the TGI (A549 NSCLC) was > 100 µM. The TGI (UACC-62 melanoma) was > 100 µM, the TGI (K-562 leukemia) was > 100 µM and the TGI (MOLT-4 leukemia) was > 100 µM. The TGI (OVCAR-8 ovarian) was > 100 µM, the TGI (HOP-92 NSCLC) was > 100 µM and the TGI (NCI-H522 lung) was > 100 µM. The TGI (MDA-MB-435) was > 100 µM, the TGI (UACC-257 melanoma) was > 100 µM and the TGI (ACHN renal) was > 100 µM. The TGI (OVCAR-5 ovarian) was > 100 µM, the TGI (SW-620 colon) was > 100 µM and the TGI (IGROV1 ovarian) was > 100 µM. For the same molecule, the TGI (SF-268 CNS) was > 100 µM, the TGI (HL-60(TB) leukemia) was > 100 µM and the TGI (SR leukemia) was > 100 µM. The TGI (SN12C renal) was > 100 µM, the TGI (RPMI-8226 leukemia) was > 100 µM and the TGI (T-47D breast) was > 100 µM. The TGI (CCRF-CEM leukemia) was > 100 µM, the TGI (LOX IMVI melanoma) was > 100 µM and the TGI (DU-145 prostate) was > 100 µM. The TGI (OVCAR-4 ovarian) was > 100 µM, the TGI (SNB-19 CNS) was > 100 µM and the TGI (COLO 205 colon) was > 100 µM. The TGI (NCI-H226 lung) was > 100 µM, the TGI (786-0 renal) was > 100 µM and the TGI (NCI-H460 lung) was > 100 µM. For the same molecule, the TGI (HS 578T breast) was > 100 µM, the TGI (M14 melanoma) was > 100 µM and the TGI (NCI/ADR-RES ovarian) was > 100 µM. For the same molecule, the TGI (HCT-116 colon) was > 100 µM, the TGI (MDA-N) was > 100 µM and the TGI (SF-295 CNS) was > 100 µM. The TGI (SK-OV-3 ovarian) was > 100 µM, the TGI (MALME-3M melanoma) was > 100 µM and the TGI (MCF7 breast) was > 100 µM. The TGI (UO-31 renal) was > 100 µM, the TGI (BT-549 breast) was > 100 µM and the TGI (TK-10 renal) was > 100 µM. For the same molecule, the TGI (KM12 colon) was > 100 µM, the TGI (MDA-MB-231 breast) was > 100 µM and the TGI (A498 renal) was > 100 µM. The TGI (SF-539 CNS) was > 100 µM, the TGI (EKVX NSCLC) was > 100 µM and the TGI (U251 CNS) was > 100 µM. The TGI (SK-MEL-5 melanoma) was > 100 µM, the TGI (HT29 colon) was > 100 µM and the TGI (SK-MEL-28 melanoma) was > 100 µM. For the same molecule, the TGI (CAKI-1 renal) was > 100 µM, the TGI (SK-MEL-2 melanoma) was > 100 µM and the TGI (HCT-15 colon) was > 100 µM. The TGI (OVCAR-3 ovarian) was > 100 µM and the TGI (NCI-H23 lung) was > 100 µM.
